Experimental findings from ChEMBL document CHEMBL1144367, “QSAR for anti-RNA-virus activity, synthesis, and assay of anti-RSV carbonucleosides given a unified representation of spectral moments, quadratic, and topologic indices” (2005) are described below.

In brackets after ≈: the same amount, converted by molar mass.

Common to all, as to format: functional
What all share (conditions): Homo sapiens

The subject of assay [1] is HeLa. The experiment in a line: Minimum inhibitory concentration against coxsackie virus B4 was determined.
Assay [2] concerns HeLa. The experiment in a line: Minimum cytotoxicity concentration to HeLa cell line was determined.
The subject of assay [3] is HeLa. The assay is described as follows: Minimum inhibitory concentration against vesicular stomatitis virus was determined.
Assay [4] deals with HeLa. The assay is described as follows: Minimum inhibitory concentration against respiratory syncytial virus was determined.

For `NC1=NC2C(N=CN2[C@H]2CCCC[C@H]2CO)C(Cl)=N1` (some centres undefined), the MIC50 in the assay on HeLa [1] was 120 µg/mL (≈ 423 µM); in the assay on HeLa [3], > 200 µg/mL; against HeLa [4], 8 µg/mL (≈ 28.2 µM). For the same molecule, the MCC in the assay with HeLa [2] was > 200 µg/mL.

Turning to `OC[C@@H]1CCCC[C@@H]1N1C=NC2C(Cl)=NC=NC21` (some centres undefined), the MIC50 in the assay on HeLa [1] and with HeLa [4] was > 80 µg/mL each time. The molecule further showed an MCC in the assay with HeLa [2] of 400 µg/mL.

As for `NC1=NC=NC2C1N=CN2[C@H]1CCCC[C@H]1CO` (some centres undefined), the results for the MIC50 with HeLa [1] and in the assay on HeLa [4] were > 80 µg/mL and 3.2 µg/mL (≈ 12.8 µM), respectively. Besides, in the assay on HeLa [2], the MCC worked out at 400 µg/mL.

Turning to `NC(=O)c1ncn([C@@H]2O[C@H](CO)[C@@H](O)[C@H]2O)n1` [RIBAVIRIN], the MIC50 was 48 µg/mL (≈ 197 µM) with HeLa [1], 16 µg/mL (≈ 65.5 µM) against HeLa [3] and 1.92 µg/mL (≈ 7.86 µM) in the assay with HeLa [4]. In the assay with HeLa [2], the MCC was > 400 µg/mL.
